Patent publication US20080194585A1, “Fungicidal Pyrazine Derivatives” (priority 2005, published 2008)
Like-named read-outs stand apart in the source and are kept apart here.

Legend:
Pythium aphanidermatum = experiment: Test A: bluegrass pythium blight, preventive spray on bluegrass seedlings; settings: for pest or weed control at 200 ppm / pest or weed control at 40 ppm: Pythium aphanidermatum, 120 h, read-out: Test A disease control rating
Botrytis cinerea = experiment: Test E: tomato botrytis, preventive spray on tomato seedlings
Phytophthora infestans = experiment: whole plant or invertebrate; type: in vivo; settings: for pest or weed control at 200 ppm / pest or weed control at 40 ppm: Phytophthora infestans, in Solanum lycopersicum, topical, 144 h, read-out: Test F disease control rating
[1] = system: Puccinia recondita f. sp. tritici; experiment: Test K: wheat leaf rust, preventive spray on wheat seedlings
fusarium graminearium = experiment: Test I: wheat head scab, preventive spray on wheat seedlings; settings: for pest or weed control at 200 ppm / pest or weed control at 40 ppm: Fusarium, in Triticum aestivum, topical, 192 h; for pest or weed control at 200 ppm: read-out: Test I disease control rating, 200 ppm
Procedure: (the causal agent of wheat head scab) and incubated in a saturated atmosphere at 20° C. for 72 h, and then moved to a growth chamber at 22° C. for 5 days, after which disease ratings were made.

[2] = system: Erysiphe graminis f. sp. tritici; experiment: Test L: wheat powdery mildew, preventive spray on wheat seedlings
Septoria nodorum = experiment: Test H: wheat glum blotch, preventive spray on wheat seedlings
Procedure: (the causal agent of wheat glum blotch) and incubated in a saturated atmosphere at 20° C. for 48 h, and then moved to a growth chamber at 22° C. for 5 days, after which disease ratings were made.

Septoria tritici = experiment: Test J: wheat leaf blotch, preventive spray on wheat seedlings; type: in vivo
Text: A dash (-) indicates no test results.

Plasmopara viticola = experiment: Test D: grape downy mildew, spray after inoculation of grape seedlings; type: in vivo; settings: for pest or weed control at 200 ppm / pest or weed control at 40 ppm: Plasmopara viticola, 168 h, read-out: Test D disease control rating
Text: Upon removal, disease ratings were made. […] A dash (-) indicates no test results.

Rhizoctonia oryzae = experiment: Test G: turf brown patch, preventive spray on creeping bent grass seedlings
Procedure: (the causal agent of turf brown patch) and incubated in a saturated atmosphere at 27° C. for 24 h, and then moved to a growth chamber at 27° C. for 5 days, after which disease ratings were made.

[3] = system: Colletotrichum orbiculare; experiment: Test B: cucumber Colletotrichum anthracnose, preventive spray on cucumber seedlings
Sclerotinia sclerotiorum = experiment: Test C: cucumber white mold, preventive spray on cucumber seedlings; settings: for pest or weed control at 40 ppm: Sclerotinia sclerotiorum, in Cucumis sativus, 168 h
[4] = Botrytis cinerea, in Solanum lycopersicum, topical, 72 h, read-out: Test E disease control rating
[5] = Puccinia recondita, in Triticum aestivum, 192 h, read-out: Test K disease control rating
[6] = Blumeria graminis, in Triticum aestivum, 168 h, read-out: Test L disease control rating, 40 ppm (*)
[7] = Parastagonospora nodorum, in Triticum aestivum, topical, 168 h, read-out: Test H disease control rating, 40 ppm (*)
[8] = Zymoseptoria tritici, 528 h, 40 ppm (*), read-out: Test J disease control rating
[9] = Waitea circinata, in Agrostis stolonifera, topical, 144 h, read-out: Test G disease control rating, 40 ppm (*)
[10] = Colletotrichum orbiculare, in Cucumis sativus, 144 h, read-out: Test B disease control rating, 40 ppm (*)
[11] = read-out: Test I disease control rating, 40 ppm (marked *), 100 = 100% disease control, 0 = no control
[12] = Blumeria graminis, in Triticum aestivum, 168 h, read-out: Test L disease control rating, 40 ppm (marked *), 100 = 100% disease control, 0 = no control
[13] = Parastagonospora nodorum, in Triticum aestivum, topical, 168 h, read-out: Test H disease control rating, 40 ppm (marked *), 100 = 100% disease control, 0 = no control
[14] = Zymoseptoria tritici, 528 h, 40 ppm (marked *), 100 = 100% disease control, 0 = no control, read-out: Test J disease control rating
[15] = 40 ppm (marked *), 100 = 100% disease control, 0 = no control
[16] = Waitea circinata, in Agrostis stolonifera, topical, 144 h, read-out: Test G disease control rating, 40 ppm (marked *), 100 = 100% disease control, 0 = no control
[17] = Colletotrichum orbiculare, in Cucumis sativus, 144 h, read-out: Test B disease control rating, 40 ppm (marked *), 100 = 100% disease control, 0 = no control
[18] = 200 ppm, 100 = 100% disease control, 0 = no control

Structure (SMILES)	pest or weed control at 200 ppm (Pythium aphanidermatum) [%]	pest or weed control at 40 ppm (Botrytis cinerea; [4]) [%]	pest or weed control at 200 ppm (Phytophthora infestans) [%]	pest or weed control at 40 ppm [1, 5] [%]	pest or weed control at 40 ppm [2, 6] [%]	pest or weed control at 40 ppm (Septoria nodorum; [7]) [%]	pest or weed control at 40 ppm (Septoria tritici; [8]) [%]	pest or weed control at 40 ppm (Rhizoctonia oryzae; [9]) [%]	melting point [°C]	pest or weed control at 40 ppm [3, 10] [%]	pest or weed control at 40 ppm (Pythium aphanidermatum) [%]	pest or weed control at 40 ppm (Phytophthora infestans) [%]	pest or weed control at 40 ppm (fusarium graminearium; [11]) [%]	pest or weed control at 40 ppm [2, 12] [%]	pest or weed control at 40 ppm (Septoria nodorum; [13]) [%]	pest or weed control at 40 ppm (Septoria tritici; [14]) [%]	pest or weed control at 40 ppm (Plasmopara viticola; [15]) [%]	pest or weed control at 40 ppm (Rhizoctonia oryzae; [16]) [%]	pest or weed control at 40 ppm [3, 17] [%]	further results
Cc1nc(-n2cccn2)c(=O)n(CC(C)C)c1-c1c(F)cccc1F [Compound 149, 5-Methyl-6-(2,6-difluorophenyl)-1-(2-methylpropyl)-3-(1H-pyrazol-1-yl)-2(1H)-pyrazinone]	0	100	0	100	100	98	100	99	105 to 106	0	–	–	–	–	–	–	–	–	–	pest or weed control at 200 ppm (fusarium graminearium): 0%; pest or weed control at 200 ppm (Plasmopara viticola; 200 ppm): 0%
CC[C@H](C)Cn1c(-c2c(F)cc(F)cc2F)c(Cl)nc(-n2cccn2)c1=O [Compound 155, 5-Chloro-1-[(2S)-2-methylbutyl)-3-(1H-pyrazol-1-yl)-6-(2,4,6-trifluorophenyl)-2(1H)-pyrazinone]	–	100	–	100	100	100	100	100	112 to 113	100	0	0	–	–	–	–	–	–	–	pest or weed control at 40 ppm (fusarium graminearium; read-out: Test I disease control rating, 40 ppm (*)): 0%; pest or weed control at 40 ppm (Sclerotinia sclerotiorum; read-out: Test C disease control rating, 40 ppm (*)): 99%; pest or weed control at 40 ppm (Plasmopara viticola; 40 ppm (*)): 47%
COc1ccc(Cn2c(-c3c(F)cccc3F)c(Cl)nc(-n3cccn3)c2=O)cc1 [Compound 271, 5-Chloro-6-(2,6-difluorophenyl)-1-[(4-methoxyphenyl)methyl]-3-(1H-pyrazol-1-yl)-2(1H)-pyrazinone]	–	0	–	32	–	–	–	–	235 to 236	–	0	0	0	0	0	0	0	0	0	pest or weed control at 40 ppm (Sclerotinia sclerotiorum; read-out: Test C disease control rating, 40 ppm (marked *), 100 = 100% disease control, 0 = no control): 0%
O=c1c(-n2cccn2)nc(Cl)c(-c2c(F)ccc(F)c2F)n1-c1ccccc1 [Compound 357, 5-Chloro-1-phenyl-3-(1H-pyrazol-1-yl)-6-(2,3,6-trifluorophenyl)-2(1H)-pyrazinone]	–	99	–	99	–	–	–	–	250 to 260	–	0	–	91	20	98	91	0	84	83	–
CCC(C)Cn1c(-c2ccc(F)cc2F)c(C)nc(C#N)c1=N (stereo not shown) [Compound 426, 5-(2,4-Difluorophenyl)-3,4-dihydro-3-imino-6-methyl-4-(2-methylbutyl)pyrazinecarbonitrile]	82	–	0	–	–	–	–	–	73 to 77	–	–	–	–	–	–	–	–	–	–	pest or weed control at 200 ppm (Botrytis cinerea; [4]): 0%; pest or weed control at 200 ppm [1, 5]: 0%; pest or weed control at 200 ppm (fusarium graminearium; 100 = 100% disease control, 0 = no control relative to controls): 0%; pest or weed control at 200 ppm ([2]; Blumeria graminis, in Triticum aestivum, 168 h, read-out: Test L disease control rating, 200 ppm, 100 = 100% disease control, 0 = no control relative to controls): 80%; pest or weed control at 200 ppm (Septoria nodorum; Parastagonospora nodorum, in Triticum aestivum, topical, 168 h, read-out: Test H disease control rating, 200 ppm, 100 = 100% disease control, 0 = no control relative to controls): 0%; pest or weed control at 200 ppm (Septoria tritici; Zymoseptoria tritici, 528 h, 200 ppm, 100 = 100% disease control, 0 = no control relative to controls, read-out: Test J disease control rating): 0%; pest or weed control at 200 ppm (Plasmopara viticola; 200 ppm, 100 = 100% disease control, 0 = no control relative to controls): 0%; pest or weed control at 200 ppm (Rhizoctonia oryzae; Waitea circinata, in Agrostis stolonifera, topical, 144 h, read-out: Test G disease control rating, 200 ppm, 100 = 100% disease control, 0 = no control relative to controls): 0%; pest or weed control at 200 ppm ([3]; Colletotrichum orbiculare, in Cucumis sativus, 144 h, read-out: Test B disease control rating, 200 ppm, 100 = 100% disease control, 0 = no control relative to controls): 0%
CCC(C)CNC(=O)c1nc(Cl)c(-c2c(F)cccc2F)n(CC(C)CC)c1=O (stereo not shown) [compound 301]	–	–	–	–	–	–	–	–	–	–	–	–	–	–	–	–	–	–	–	Test A disease control rating (Pythium aphanidermatum; [18]): 0%; Test E disease control rating (Botrytis cinerea; [18]): 100%; Test F disease control rating (Phytophthora infestans; [18]): 0%; Test K disease control rating [1, 18]: 99%; Test I disease control rating (fusarium graminearium; [18]): 0%; Test L disease control rating [2, 18]: 68%; Test H disease control rating (Septoria nodorum; [18]): 87%; Test C disease control rating (Sclerotinia sclerotiorum; [18]): 0%; Test J disease control rating (Septoria tritici; [18]): 98%; Test D disease control rating (Plasmopara viticola; [18]): 0%; Test G disease control rating (Rhizoctonia oryzae; [18]): 0%; Test B disease control rating [3, 18]: 0%
